# Reference: patent US12365710B2, “HMGB1 protein derivatives for the removal of biofilms” (RESEARCH INSTITUTE AT NATIONWIDE CHILDREN'S HOSPITAL, priority 2018, dated 2025)
# What was measured:
# UPEC biofilm = assay: in vitro disruption of established biofilms, CLSM and COMSTAT; assay type: cell-based, Uropathogenic E. coli; details: for disruption of established UPEC biofilms: added at 24 h, 16 h exposure, 200 nM unless stated
# Experimental: FIGS. 5A-5E: Anti-biofilm effect of HMGB1 variants on high priority bacterial pathogens. Indicated HMGB1 variants or antibodies against DNABII proteins (α-1HFEc 1gG, 1 μM) were added at 24 h to the respective preformed bacterial biofilms, in vitro. After 16 h of Incubation, biofilms were stained with LIVE/DEAD®, then visualized via confocal laser scanning microscopy. Images were analyzed by COMSTAT to calculate average thickness and comparison to control was plotted. (FIG. 5A) Full-length HMGB1 isoforms (200 nM unless otherwise indicated) added to UPEC, B. cenocepacia, NTHI, or ESKAPE pathogens. 800 nM rHMGB1 and 200 nM mHMGB1 were added for S. aureus (ESKAPE). 800 nM rHMGB1, 800 nM mHMGB1, or 3.3 μM of α-1HFEc 1gG were added for E. faecium (ESKAPE) and were incubated for 1 h as opposed to 16 h to avoid potential degradation by E. faecium proteases. (FIG. 5B) Representative images of UPEC biofilms incubated with increasing concentrations of rHMGB1. (FIG. 5C) Individual domains of HMGB1 (200 nM) were tested for anti-biofilm activity as above (dotted line indicates control values). Bars represent the SEM. Statistical significance compared to control was assessed with unpaired t-tests, *P<0.05. […] (FIGS. 5D-5E) HMGB1 and variants disrupt preformed Klebsiella pneumoniae biofilms. rHMGB1, HMGB1 C45S (mHMGB1), bovine HMGB1 (bHMGB1), B box, B Box C106S (mB Box), A Box, and A+B Box were added (200 nM) at 24 h to preformed K. pneumoniae biofilms. After 16 h of incubation, biofilms were stained with LIVE/DEAD®, then visualized via confocal laser scanning microscopy. Images were analyzed by COMSTAT to calculate average thickness and total biomass. Error bars represent the SEM. ***P<0.0001; ns=not significant.
# HMGB1 disrupts pathogenic biofilms: To test the effect of HMGB1 on bacterial biofilms (FIG. 5), Applicant cloned (IMPACT®, NEB Ipswich, MA), expressed (in E. coli), and purified (heparin sepharose chromatography to >95% purity) tagless human recombinant HMGB1 (rHMGB1) and an engineered C45 S variant (mHMGB1) that mimics the reduced form of HMGB1. rHMGB1 readily forms an intramolecular disulfide bond between C23 and C45 that contributes to pro-inflammatory activity whereas mHMGB1 cannot. These HMGB1 isoforms were evaluated for ability to disrupt established biofilms (formed for 24 h prior to addition). After a 16 h exposure to a single dose of rHMGB1 (200 nM; ˜25-fold greater than typical sepsis serum concentration, but not able to directly induce sepsis), biofilms formed by a wide variety of high priority species were stained with LIVE/DEAD®, analyzed using confocal laser scanning microscopy (CLSM) and COMSTAT analysis and compared to control biofilms. […] Preliminary analysis of PTMs by LC-MS/MS analysis (MS Bioworks, LLC Ann Arbor, MI) indicated minimal modification of both rHMGB1 and nHMGB1 (<20% of the observed peptides had any given PTM, FIG. 1C). […] Thus, while there are intrinsic differences in sensitivity among pathogens, the biofilms formed by all of the tested high priority pathogens were susceptible to a single dose of these non-antimicrobial compounds.
# HMGB1 domain structure and anti-biofilm activity: Applicant then produced recombinant HMGB1 truncation variants, of 1) the A Box, a self-contained DNA-binding domain (residues 1-89); 2) an A-B Boxes construct (lacks the C tail; residues 1-185); and 3) the B Box (residues 80 to 176, FIGS. 1A and 1C). […] Since only the B Box can modulate DNA bending, without being bound by theory, it was hypothesized that HMGB1 disrupts biofilms at least in part via DNA-binding/bending. As the B Box is reported to contain pro-inflammatory activity, mediated primarily through interactions with TLR4-MD2 that are dependent on residue C106, Applicant created a modified B Box variant (mB Box) with a C106S mutation (FIGS. 1A and 1C).
# E. faecium biofilm = assay: as above; assay type: cell-based; details: 800 nM rHMGB1, incubated 1 h (FIG. 5A)
# Experimental: (§1) FIGS. 5A-5E: Anti-biofilm effect of HMGB1 variants on high priority bacterial pathogens. Indicated HMGB1 variants or antibodies against DNABII proteins (α-1HFEc 1gG, 1 μM) were added at 24 h to the respective preformed bacterial biofilms, in vitro. After 16 h of Incubation, biofilms were stained with LIVE/DEAD®, then visualized via confocal laser scanning microscopy. Images were analyzed by COMSTAT to calculate average thickness and comparison to control was plotted. (FIG. 5A) Full-length HMGB1 isoforms (200 nM unless otherwise indicated) added to UPEC, B. cenocepacia, NTHI, or ESKAPE pathogens. 800 nM rHMGB1 and 200 nM mHMGB1 were added for S. aureus (ESKAPE). […] Statistical significance compared to control was assessed with unpaired t-tests, *P<0.05. […] Images were analyzed by COMSTAT to calculate average thickness and total biomass. […]
# (§2) HMGB1 disrupts pathogenic biofilms: To test the effect of HMGB1 on bacterial biofilms (FIG. 5), Applicant cloned (IMPACT®, NEB Ipswich, MA), expressed (in E. coli), and purified (heparin sepharose chromatography to >95% purity) tagless human recombinant HMGB1 (rHMGB1) and an engineered C45 S variant (mHMGB1) that mimics the reduced form of HMGB1. rHMGB1 readily forms an intramolecular disulfide bond between C23 and C45 that contributes to pro-inflammatory activity whereas mHMGB1 cannot. […]
# S. aureus biofilm = assay: as above; assay type: cell-based; details: 800 nM rHMGB1 used (FIG. 5A)
# Experimental: as §1, §2
# [1] = tested on: established biofilms formed by high priority human pathogens; assay: in vitro disruption of established biofilms of high priority pathogens (panel); assay type: cell-based, UPEC, B. cenocepacia, NTHI, ESKAPE pathogens; details: single dose 200 nM, biofilms formed 24 h, 16 h exposure
# Experimental: as §1, §2
# B. cenocepacia biofilm = assay type: cell-based, Burkholderia cenocepacia; details: 200 nM added at 24 h, 16 h exposure
# Experimental: Indicated HMGB1 variants or antibodies against DNABII proteins (α-1HFEc 1gG, 1 μM) were added at 24 h to the respective preformed bacterial biofilms, in vitro. After 16 h of Incubation, biofilms were stained with LIVE/DEAD®, then visualized via confocal laser scanning microscopy. Images were analyzed by COMSTAT to calculate average thickness and comparison to control was plotted. (FIG. 5A) Full-length HMGB1 isoforms (200 nM unless otherwise indicated) added to UPEC, B. cenocepacia, NTHI, or ESKAPE pathogens. 800 nM rHMGB1 and 200 nM mHMGB1 were added for S. aureus (ESKAPE). 800 nM rHMGB1, 800 nM mHMGB1, or 3.3 μM of α-1HFEc 1gG were added for E. faecium (ESKAPE) and were incubated for 1 h as opposed to 16 h to avoid potential degradation by E. faecium proteases. […] (FIG. 5C) Individual domains of HMGB1 (200 nM) were tested for anti-biofilm activity as above (dotted line indicates control values). Bars represent the SEM. Statistical significance compared to control was assessed with unpaired t-tests, *P<0.05. […] After 16 h of incubation, biofilms were stained with LIVE/DEAD®, then visualized via confocal laser scanning microscopy. Images were analyzed by COMSTAT to calculate average thickness and total biomass. Error bars represent the SEM. ***P<0.0001; ns=not significant.
Molecule,disruption of established UPEC biofilms (UPEC biofilm),"average thickness of UPEC biofilm (UPEC biofilm; progressively higher concentrations of rHMGB1, up to 400 nM, monolayer) [μm]",concentration needed to disrupt E. faecium biofilm (E. faecium biofilm),concentration needed to disrupt S. aureus biofilm (S. aureus biofilm),disruption of established biofilms (average thickness and biomass) of high priority species [1],disruption of established biofilms (average thickness and biomass) of high priority species ([1]; listed as Full length recombinant HMGB1),disruption of established Bc biofilms (B. cenocepacia biofilm)
rHMGB1: tagless human recombinant full length HMGB1 (1-215) expressed in E. coli,disrupted a UPEC biofilm in a dose-dependent manner,~1,required a higher (albeit non-bactericidal) concentration,required a higher (albeit non-bactericidal) concentration,significant reduction,significantly disrupt,
"B-linker Box: HMGB1 B Box with N- and C-terminal linker (80-179; 80 to 176 in b258), 97 amino acid (protein, UniProt P09429 80-179, looked up, fragment) PPKGETKKKFKDPNAPKRPPSAFFLFCSEYRPKIKGEHPGLSIGDVAKKLGEMWNNTAADDKQPYEKKAAKLKEKYEKDIAAYRAKGKPDAAKKGVVKAE",retained full anti-biofilm activity,,,,,,retained full anti-biofilm activity
